US9040500B2, “Method for treating hematopoietic neoplasms” (priority 2007, dated 2015)

How the values were obtained:
[1] = tested on: subcutaneous HL60 tumors; test: Subcutaneous in vivo leukemia model (Example 1); parameters: species or system athymic nu/nu mice; conditions: for tumor volume / tumor growth versus control (PBS): CA1dP or CA4P 75 mg/kg/inj, Ara-C 20 mg/kg/inj, HL60 s.c. in nu/nu mice
Method: (§1) HL60 (1×10^7 cells in 0.1 ml) were injected subcutaneously into the dorsa of 4-6 week old athymic nu/nu mice (Southern Research Institute). When palpable tumors were evident (average tumor volume 100 mm^3; i.e. approximately 12 days after inoculation), 6 experimental groups of mice were randomized, each with 10 animals. Treatment was initiated according to the following regimens:
Tumor volume was measured three times a week until the endpoint was reached (tumor volume >3000 mm^3), or for 90 days post-treatment.

[2] = tested on: tubulin; conditions: cited from earlier work
[3] = tested on: subcutaneous solid tumors; conditions: concentrations well below the maximum tolerated dose; cited from earlier work
[4] = tested on: intracellular reactive oxygen species (ROS); test: Intracellular reactive oxygen species in leukemic cells; type: cell-based
[5] = tested on: leukemic cells; test: Leukemic cell proliferation and cell death in vitro; type: cell-based; conditions: low and non-toxic doses
[6] = tested on: subcutaneous HL60 tumors; test: Dose response activity in subcutaneous HL60 model (Example 2); type: in vivo, athymic nu/nu mice
Method: as §1, with “inoculation), ten” for “inoculation), 6”
Tumor volume was measured three times per week.

[7] = CA1dP 75 mg/kg/inj with addition of Ara-C 20 mg/kg/inj
[8] = subcutaneous mouse models of AML, single agent (introduction summary)
[9] = CA1dP combined with araC 20 mg/kg/inj

Nc1ccn([C@@H]2O[C@H](CO)[C@@H](O)[C@@H]2O)c(=O)n1 [Ara-C, cytosine arabinoside, reference compound]
tumor volume / tumor growth versus control (PBS) ([1]; single agent): little improvement

COc1ccc(/C=C\c2cc(OC)c(OC)c(OC)c2)c(O)c1O [Combretastatin A-1]
affinity for tubulin at the colchicine site, relative to colchicine [2]: higher affinity

COc1ccc(/C=C\c2cc(OC)c(OC)c(OC)c2)cc1OP(=O)(O)O [CA4P, combretastatin A-4 phosphate, reference compound]
life span versus controls ([1]; single agent, 75 mg/kg/inj): extended life span
tumor volume / tumor growth versus control (PBS) ([1]; single agent): delayed tumor growth

COc1cc(/C=C\c2ccc(OC)c(OP(=O)(O)O)c2OP(=O)(O)O)cc(OC)c1OC [CA1dP, combretastatin A-1 diphosphate]
microtubule depolymerization and vascular shutdown causing tumor necrosis [3]: induces rapid microtubule depolymerization and vascular shutdown
intracellular reactive oxygen species (ROS) [4]: rapidly increases intracellular reactive oxygen species
leukemic cell proliferation in vitro [5]: inhibit leukemic cell proliferation in vitro
mitotic arrest and cell death of leukemic cells [5]: induce mitotic arrest and cell death
complete regressions out of ten treated mice [1, 7]: six
tumor volume versus CA1dP alone [1, 7]: further decreased tumor volumes
tumor load with co-administered chemotherapeutic agent ([1]; co-administration of AraC (introduction summary)): decreases tumor load even further
complete tumor regressions in a population of ten treated mice ([1]; single agent, 75 mg/kg/inj Q7D x 2): five
tumor volume / tumor growth versus control (PBS) ([1]; single agent): substantial decreases in tumor volume
survival of treated mice [1, 8]: significantly prolonged survival
tumor load of treated mice [1, 8]: significantly decreased tumor load
decrease in tumor volume relative to dose ([6]; CA1dP 2.5, 10, 25, 75 mg/kg/inj, day 3 and 10): clear dose response relationship
duration of tumor growth inhibition, combination versus CA1dP alone [6, 9]: longer growth inhibition
number of complete responses, combination versus CA1dP alone [6, 9]: not significantly altered
anti-tumor activity ([6]; doses of CA1dP above 2.5 mg/kg): significant anti-tumor activity
